Source: the supplement of paper PMC10307832

Assays:
Assay in all cases: relative viability (nuclei count vs DMSO), 5 days (fraction); higher = more cells survive
[1] = system: LXF-289
In short: (§1)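 Cells from lung cancer lines were seeded into 1536-well plates and, one day later, dosed by pin tool. Treatments were either a single drug or a fixed dose of an anchor drug with five library-drug doses (not always all listed) in √10 steps. After 5 days, nuclei were stained in a one-step fixation (final 0.05% Triton X-100, 1% formaldehyde, 1 ug/ml Hoechst) and counted on 4× images, and relative viability is the treated-to-vehicle nuclei ratio, as the median of duplicate plates.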

[2] = system: ABC-1
In short: as §1

[3] = system: NCI-H1993
In short: as §1

[4] = system: LK-2
In short: as §1

[5] = system: NCI-H1792
In short: as §1

[6] = system: NCI-H2009
In short: as §1

[7] = system: SK-MES-1
In short: as §1

[8] = system: SW 900
In short: as §1

[9] = system: NCI-H2170
In short: as §1

[10] = system: NCI-H2228
In short: as §1

[11] = system: HARA
In short: as §1

[12] = system: SW 1573
In short: as §1

[13] = system: NCI-H727
In short: as §1

[14] = system: PC-3 [JPC-3]
In short: as §1

[15] = system: NCI-H522
In short: as §1

[16] = system: HOP-62
In short: as §1

[17] = system: EMC-BAC-2
In short: as §1

[18] = system: NCI-H322M
In short: as §1

[19] = system: NCI-H1944
In short: as §1

[20] = system: NCI-H3122
In short: as §1

[21] = system: A-427
In short: as §1

CC(=O)O[C@@]12CO[C@@H]1C[C@H](O)[C@@]1(C)C(=O)[C@H](O)C3=C(C)[C@@H](OC(=O)[C@H](O)[C@@H](NC(=O)OC(C)(C)C)c4ccccc4)C[C@@](O)([C@@H](OC(=O)c4ccccc4)[C@H]21)C3(C)C [Docetaxel] + CC(=O)c1c(C)c2cnc(Nc3ccc(N4CCNCC4)cn3)nc2n(C2CCCC2)c1=O [Palbociclib] (partner 0.5 µM)
relative viability ([1]; first compound 0.0002 µM): 0.578 | relative viability ([1]; first compound 0.000632 µM): 0.569 | relative viability ([1]; first compound 0.002 µM): 0.337 | relative viability ([1]; first compound 0.006325 µM): 0.222 | relative viability ([1]; first compound 0.02 µM): 0.131 | relative viability ([2]; first compound 0.0002 µM): 0.568 | relative viability ([2]; first compound 0.000632 µM): 0.587 | relative viability ([2]; first compound 0.002 µM): 0.539 | relative viability ([2]; first compound 0.006325 µM): 0.444 | relative viability ([2]; first compound 0.02 µM): 0.437 | relative viability ([3]; first compound 0.0002 µM): 0.799 | relative viability ([3]; first compound 0.000632 µM): 0.708 | relative viability ([3]; first compound 0.002 µM): 0.686 | relative viability ([3]; first compound 0.006325 µM): 0.538 | relative viability ([3]; first compound 0.02 µM): 0.307 | relative viability ([4]; first compound 0.0002 µM): 0.507 | relative viability ([4]; first compound 0.000632 µM): 0.411 | relative viability ([4]; first compound 0.002 µM): 0.18 | relative viability ([4]; first compound 0.006325 µM): 0.108 | relative viability ([4]; first compound 0.02 µM): 0.0873 | relative viability ([5]; first compound 0.0002 µM): 0.651 | relative viability ([5]; first compound 0.000632 µM): 0.639 | relative viability ([5]; first compound 0.002 µM): 0.543 | relative viability ([5]; first compound 0.006325 µM): 0.367 | relative viability ([5]; first compound 0.02 µM): 0.213 | relative viability ([6]; first compound 0.0002 µM): 0.135 | relative viability ([6]; first compound 0.000632 µM): 0.234 | relative viability ([6]; first compound 0.002 µM): 0.192 | relative viability ([6]; first compound 0.006325 µM): 0.202 | relative viability ([6]; first compound 0.02 µM): 0.127 | relative viability ([7]; first compound 0.0002 µM): 0.401 | relative viability ([7]; first compound 0.000632 µM): 0.444 | relative viability ([7]; first compound 0.002 µM): 0.382 | relative viability ([7]; first compound 0.006325 µM): 0.303 | relative viability ([7]; first compound 0.02 µM): 0.176 | relative viability ([8]; first compound 0.0002 µM): 0.511 | relative viability ([8]; first compound 0.000632 µM): 0.308 | relative viability ([8]; first compound 0.002 µM): 0.354 | relative viability ([8]; first compound 0.006325 µM): 0.332 | relative viability ([8]; first compound 0.02 µM): 0.264 | relative viability ([9]; first compound 0.0002 µM): 0.409 | relative viability ([9]; first compound 0.000632 µM): 0.383 | relative viability ([9]; first compound 0.002 µM): 0.306 | relative viability ([9]; first compound 0.006325 µM): 0.188 | relative viability ([9]; first compound 0.02 µM): 0.171 | relative viability ([10]; first compound 0.0002 µM): 0.52 | relative viability ([10]; first compound 0.000632 µM): 0.251 | relative viability ([10]; first compound 0.002 µM): 0.195 | relative viability ([10]; first compound 0.006325 µM): 0.137 | relative viability ([10]; first compound 0.02 µM): 0.129 | relative viability ([11]; first compound 0.0002 µM): 0.222 | relative viability ([11]; first compound 0.000632 µM): 0.189 | relative viability ([11]; first compound 0.002 µM): 0.168 | relative viability ([11]; first compound 0.006325 µM): 0.128 | relative viability ([11]; first compound 0.02 µM): 0.0982 | relative viability ([12]; first compound 0.0002 µM): 0.316 | relative viability ([12]; first compound 0.000632 µM): 0.23 | relative viability ([12]; first compound 0.002 µM): 0.155 | relative viability ([12]; first compound 0.006325 µM): 0.196 | relative viability ([12]; first compound 0.02 µM): 0.0993 | relative viability ([13]; first compound 0.0002 µM): 0.618 | relative viability ([13]; first compound 0.000632 µM): 0.64 | relative viability ([13]; first compound 0.002 µM): 0.629 | relative viability ([13]; first compound 0.006325 µM): 0.538 | relative viability ([13]; first compound 0.02 µM): 0.446 | relative viability ([14]; first compound 0.0002 µM): 0.55 | relative viability ([14]; first compound 0.000632 µM): 0.559 | relative viability ([14]; first compound 0.002 µM): 0.573 | relative viability ([14]; first compound 0.006325 µM): 0.469 | relative viability ([14]; first compound 0.02 µM): 0.422 | relative viability ([15]; first compound 0.0002 µM): 1.11 | relative viability ([15]; first compound 0.000632 µM): 0.795 | relative viability ([15]; first compound 0.002 µM): 0.758 | relative viability ([15]; first compound 0.006325 µM): 0.565 | relative viability ([15]; first compound 0.02 µM): 0.311 | relative viability ([16]; first compound 0.0002 µM): 0.461 | relative viability ([16]; first compound 0.000632 µM): 0.353 | relative viability ([16]; first compound 0.002 µM): 0.284 | relative viability ([16]; first compound 0.02 µM): 0.156 | relative viability ([17]; first compound 0.0002 µM): 0.511 | relative viability ([17]; first compound 0.000632 µM): 0.536 | relative viability ([17]; first compound 0.002 µM): 0.441 | relative viability ([17]; first compound 0.006325 µM): 0.363 | relative viability ([17]; first compound 0.02 µM): 0.31 | relative viability ([18]; first compound 0.0002 µM): 0.469 | relative viability ([18]; first compound 0.000632 µM): 0.448 | relative viability ([18]; first compound 0.002 µM): 0.471 | relative viability ([18]; first compound 0.006325 µM): 0.468 | relative viability ([18]; first compound 0.02 µM): 0.438 | relative viability ([19]; first compound 0.0002 µM): 0.359 | relative viability ([19]; first compound 0.000632 µM): 0.268 | relative viability ([19]; first compound 0.002 µM): 0.314 | relative viability ([19]; first compound 0.006325 µM): 0.22 | relative viability ([19]; first compound 0.02 µM): 0.14 | relative viability ([20]; first compound 0.0002 µM): 0.184 | relative viability ([20]; first compound 0.000632 µM): 0.205 | relative viability ([20]; first compound 0.002 µM): 0.174 | relative viability ([20]; first compound 0.006325 µM): 0.187 | relative viability ([20]; first compound 0.02 µM): 0.114 | relative viability ([21]; first compound 0.0002 µM): 0.522 | relative viability ([21]; first compound 0.000632 µM): 0.505 | relative viability ([21]; first compound 0.002 µM): 0.507 | relative viability ([21]; first compound 0.006325 µM): 0.372 | relative viability ([21]; first compound 0.02 µM): 0.241
